Results reported in patent US6797731B2, “Resorcinol derivatives” (Pfizer Inc., priority 2000, dated 2004).

Target: T1, human tyrosinase (Homo sapiens, UniProt P14679)
T1 construct: endogenous in cells; host or cells: SKMEL 188 human melanoma cell line (lysate)
T1 sequence (P14679 19-529): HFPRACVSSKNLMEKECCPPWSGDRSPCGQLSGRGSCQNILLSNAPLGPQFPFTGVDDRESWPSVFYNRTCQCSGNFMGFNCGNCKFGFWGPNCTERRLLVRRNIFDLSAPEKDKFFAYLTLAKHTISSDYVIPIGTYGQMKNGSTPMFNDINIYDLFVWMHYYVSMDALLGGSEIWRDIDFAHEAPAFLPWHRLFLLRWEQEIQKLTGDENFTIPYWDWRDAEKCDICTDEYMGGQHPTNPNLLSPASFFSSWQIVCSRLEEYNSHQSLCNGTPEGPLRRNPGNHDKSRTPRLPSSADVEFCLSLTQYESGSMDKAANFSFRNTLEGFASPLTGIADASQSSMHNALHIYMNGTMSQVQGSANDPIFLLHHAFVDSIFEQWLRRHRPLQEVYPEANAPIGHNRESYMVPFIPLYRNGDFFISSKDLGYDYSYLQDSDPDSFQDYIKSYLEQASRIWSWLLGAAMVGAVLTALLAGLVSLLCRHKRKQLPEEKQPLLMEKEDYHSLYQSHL
Experiment: Tyrosinase (DOPA oxidase) assay using cell lysate
Assay type: biochemical
Settings: SKMEL 188 cell lysates; L-DOPA 100 μg/ml; incubated 8 hrs; read at 405 nm
Description: 1. Tyrosinase (DOPA Oxidase) Assay Using Cell Lysate:
Human melanoma cell line, SKMEL 188 (licensed from Memorial Sloan-Kettering), is used in the cell lysate assay and the screen. In the assay, compounds and L-dihydroxyphenylalanine (L-DOPA) (100 μg/ml) are incubated with the cell lysates containing human tyrosinase for 8 hrs before the plates are read at 405 nm.

IC50: ~2000 nM
SMILES: N[C@H](Cc1ccccc1)C(=O)O[C@H]1CC[C@H](c2ccc(O)cc2O)CC1 [Example 22, trans-4-(2,4-Dihydroxyphenyl)cyclohexyl (2R)-2-amino-3-phenylpropanoate]
